System: 935938-334-R-J1-PDC complex spheroid viability
Test: Anticancer human tumor 935938-334-R-J1-PDC patient-derived small intestine adenocarcinoma cell line growth inhibition [POLQ]
Conditions: for IC50: curve of first compound; for viability, T/C: stronger effect = lower value
Procedure, shortened: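 Patient-derived tumour cells were co-cultured with HUVEC and mesenchymal stem cells as multicellular spheroids at 37 °C. They were treated with POLQ inhibitors (novobiocin, ART-558, RP6685) alone or combined with other agents. Top concentrations were at or near clinical Cmax (otherwise 10 microM; SN-38 at 1 microM), decreasing in half-log steps.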

[1] = second compound 0.0316 µM, first compound 0.0316 µM
[2] = second compound 0.0316 µM, first compound 0.1 µM
[3] = second compound 0.0316 µM, first compound 0.316 µM
[4] = second compound 0.0316 µM, first compound 1 µM
[5] = second compound 0.0316 µM, first compound 3.16 µM
[6] = second compound 0.0316 µM, first compound 10 µM
[7] = second compound 0.1 µM, first compound 0.0316 µM
[8] = second compound 0.1 µM, first compound 0.1 µM
[9] = second compound 0.1 µM, first compound 0.316 µM
[10] = second compound 0.1 µM, first compound 1 µM
[11] = second compound 0.1 µM, first compound 3.16 µM
[12] = second compound 0.1 µM, first compound 10 µM
[13] = second compound 0.316 µM, first compound 0.0316 µM
[14] = second compound 0.316 µM, first compound 0.1 µM
[15] = second compound 0.316 µM, first compound 0.316 µM
[16] = second compound 0.316 µM, first compound 1 µM
[17] = second compound 0.316 µM, first compound 3.16 µM
[18] = second compound 0.316 µM, first compound 10 µM
[19] = second compound 1 µM, first compound 0.0316 µM
[20] = second compound 1 µM, first compound 0.1 µM
[21] = second compound 1 µM, first compound 0.316 µM
[22] = second compound 1 µM, first compound 1 µM
[23] = second compound 1 µM, first compound 3.16 µM
[24] = second compound 1 µM, first compound 10 µM
[25] = second compound 3.16 µM, first compound 0.0316 µM
[26] = second compound 3.16 µM, first compound 0.1 µM
[27] = second compound 3.16 µM, first compound 0.316 µM
[28] = second compound 3.16 µM, first compound 1 µM
[29] = second compound 3.16 µM, first compound 3.16 µM
[30] = second compound 3.16 µM, first compound 10 µM
[31] = second compound 10 µM, first compound 0.0316 µM
[32] = second compound 10 µM, first compound 0.1 µM
[33] = second compound 10 µM, first compound 0.316 µM
[34] = second compound 10 µM, first compound 1 µM
[35] = second compound 10 µM, first compound 3.16 µM
[36] = second compound 10 µM, first compound 10 µM
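Further: spheroids exposed to drugs for seven days before viability read.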
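Wherever viability, T/C is given: 100% = DMSO vehicle control wells.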

## O=C(Nc1ccc(O)c(NS(=O)(=O)c2ccc(F)cc2)c1)c1ccc(-c2ccccc2)cc1 + COC1C(OC(N)=O)C(O)C(Oc2ccc3c(O)c(NC(=O)c4ccc(O)c(CC=C(C)C)c4)c(=O)oc3c2C)OC1(C)C
Second compound 0.0316 µM
  IC50: > 10 µM
Second compound 0.1 µM
  IC50: > 10 µM
Second compound 0.316 µM
  IC50: > 10 µM
Second compound 1 µM
  IC50: > 10 µM
Second compound 3.16 µM
  IC50: > 10 µM
Second compound 10 µM
  IC50: > 10 µM
[1]
  viability, T/C: 77.9%
[2]
  viability, T/C: 134%
[3]
  viability, T/C: 107%
[4]
  viability, T/C: 102%
[5]
  viability, T/C: 89.1%
[6]
  viability, T/C: 66.7%
[7]
  viability, T/C: 115%
[8]
  viability, T/C: 97.3%
[9]
  viability, T/C: 86.5%
[10]
  viability, T/C: 97%
[11]
  viability, T/C: 90.8%
[12]
  viability, T/C: 72.4%
[13]
  viability, T/C: 95.3%
[14]
  viability, T/C: 97.9%
[15]
  viability, T/C: 102%
[16]
  viability, T/C: 75.9%
[17]
  viability, T/C: 93.3%
[18]
  viability, T/C: 73.6%
[19]
  viability, T/C: 106%
[20]
  viability, T/C: 109%
[21]
  viability, T/C: 96.2%
[22]
  viability, T/C: 93%
[23]
  viability, T/C: 116%
[24]
  viability, T/C: 77%
[25]
  viability, T/C: 105%
[26]
  viability, T/C: 93.3%
[27]
  viability, T/C: 85.2%
[28]
  viability, T/C: 109%
[29]
  viability, T/C: 87.6%
[30]
  viability, T/C: 75.2%
[31]
  viability, T/C: 145%
[32]
  viability, T/C: 99.7%
[33]
  viability, T/C: 128%
[34]
  viability, T/C: 84.4%
[35]
  viability, T/C: 97.2%
[36]
  viability, T/C: 67.6%

## COc1ccc([C@@H](O)c2cc(-c3ncnc4cc(N5CCOCC5)ccc34)c(F)cc2Cl)nn1 + COC1C(OC(N)=O)C(O)C(Oc2ccc3c(O)c(NC(=O)c4ccc(O)c(CC=C(C)C)c4)c(=O)oc3c2C)OC1(C)C
Second compound 0.0316 µM
  IC50: 5.47 µM
Second compound 0.1 µM
  IC50: 4.65 µM
Second compound 0.316 µM
  IC50: 4.59 µM
Second compound 1 µM
  IC50: 3.26 µM
Second compound 3.16 µM
  IC50: 6.59 µM
Second compound 10 µM
  IC50: 6.65 µM
[1]
  viability, T/C: 96.2%
[2]
  viability, T/C: 131%
[3]
  viability, T/C: 106%
[4]
  viability, T/C: 76.4%
[5]
  viability, T/C: 67.5%
[6]
  viability, T/C: 36.3%
[7]
  viability, T/C: 111%
[8]
  viability, T/C: 106%
[9]
  viability, T/C: 75%
[10]
  viability, T/C: 89.2%
[11]
  viability, T/C: 64.4%
[12]
  viability, T/C: 26.6%
[13]
  viability, T/C: 102%
[14]
  viability, T/C: 103%
[15]
  viability, T/C: 98.2%
[16]
  viability, T/C: 59.3%
[17]
  viability, T/C: 66.3%
[18]
  viability, T/C: 35.1%
[19]
  viability, T/C: 113%
[20]
  viability, T/C: 125%
[21]
  viability, T/C: 111%
[22]
  viability, T/C: 85.2%
[23]
  viability, T/C: 51.6%
[24]
  viability, T/C: 33.9%
[25]
  viability, T/C: 115%
[26]
  viability, T/C: 97.8%
[27]
  viability, T/C: 108%
[28]
  viability, T/C: 81.4%
[29]
  viability, T/C: 73%
[30]
  viability, T/C: 38.1%
[31]
  viability, T/C: 95.8%
[32]
  viability, T/C: 72.4%
[33]
  viability, T/C: 96.4%
[34]
  viability, T/C: 70.4%
[35]
  viability, T/C: 80%
[36]
  viability, T/C: 34.8%

## CCc1cc2c(N3CCc4c(cc(Cn5ccnc5)cc4-c4cn(C)nc4C(F)(F)F)C3=O)ccnc2c(OC)n1 + COC1C(OC(N)=O)C(O)C(Oc2ccc3c(O)c(NC(=O)c4ccc(O)c(CC=C(C)C)c4)c(=O)oc3c2C)OC1(C)C
Second compound 0.0316 µM
  IC50: > 10 µM
Second compound 0.1 µM
  IC50: > 10 µM
Second compound 0.316 µM
  IC50: > 10 µM
Second compound 1 µM
  IC50: > 10 µM
Second compound 3.16 µM
  IC50: > 10 µM
Second compound 10 µM
  IC50: > 10 µM
[1]
  viability, T/C: 73.3%
[2]
  viability, T/C: 86.7%
[3]
  viability, T/C: 72.2%
[4]
  viability, T/C: 94.4%
[5]
  viability, T/C: 82.7%
[6]
  viability, T/C: 65.9%
[7]
  viability, T/C: 85.7%
[8]
  viability, T/C: 77.2%
[9]
  viability, T/C: 64.6%
[10]
  viability, T/C: 83.8%
[11]
  viability, T/C: 86.5%
[12]
  viability, T/C: 64.5%
[13]
  viability, T/C: 97.2%
[14]
  viability, T/C: 62.6%
[15]
  viability, T/C: 85%
[16]
  viability, T/C: 73.2%
[17]
  viability, T/C: 90.5%
[18]
  viability, T/C: 70.3%
[19]
  viability, T/C: 64.7%
[20]
  viability, T/C: 81.9%
[21]
  viability, T/C: 62.5%
[22]
  viability, T/C: 63.9%
[23]
  viability, T/C: 87.5%
[24]
  viability, T/C: 62.1%
[25]
  viability, T/C: 74.5%
[26]
  viability, T/C: 85.5%
[27]
  viability, T/C: 88.5%
[28]
  viability, T/C: 59.5%
[29]
  viability, T/C: 73.5%
[30]
  viability, T/C: 72%
[31]
  viability, T/C: 69.7%
[32]
  viability, T/C: 67.2%
[33]
  viability, T/C: 66.1%
[34]
  viability, T/C: 73.6%
[35]
  viability, T/C: 81.2%
[36]
  viability, T/C: 72.2%
